Data: patent US20250163047A1, “HETEROCYCLIC COMPOUNDS, COMPOSITIONS THEREOF, AND METHODS OF TREATMENT THEREWITH” (BeiGene, Ltd., priority 2022, published 2025)

How the values were obtained:
Cbl-b (aa36-427) = target: T1, Cbl-b (aa36-427) (Homo sapiens, UniProt Q13191); assay: Co-expressed Cbl-b with BirA biochemical assay (CBLB/E2-Ub binding, HTRF); conditions: 0.6 nM Cbl-b co-expressed with BirA, HTRF; read-out: co-express CBLB/E2-Ub-binding assay IC50
T1 construct: Cbl-b (aa36-427, in-house); made in house
T1 sequence (Q13191 36-427): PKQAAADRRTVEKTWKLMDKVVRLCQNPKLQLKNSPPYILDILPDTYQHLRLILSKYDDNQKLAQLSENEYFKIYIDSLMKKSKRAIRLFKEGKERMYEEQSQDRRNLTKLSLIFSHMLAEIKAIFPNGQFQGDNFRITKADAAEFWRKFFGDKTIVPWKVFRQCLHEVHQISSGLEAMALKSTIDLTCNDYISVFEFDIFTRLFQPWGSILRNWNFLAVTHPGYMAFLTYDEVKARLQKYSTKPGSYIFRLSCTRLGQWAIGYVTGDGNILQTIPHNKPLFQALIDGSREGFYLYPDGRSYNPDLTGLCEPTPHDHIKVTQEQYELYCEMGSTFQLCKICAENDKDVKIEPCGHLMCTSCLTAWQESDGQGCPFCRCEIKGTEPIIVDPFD
Text: (§1) The assay in the absence of a Cbl-b/Cbl inhibitor, where phosphorylation of Cbl-b/Cbl by the Src kinase allows UbcH5B-Ub to bind to Cbl-b/Cbl and brings the Bodipy-Fluorescein tagged ubiquitin in proximity to the streptavidin-terbium bound to the N-terminal biotinylated Avi-tagged Cbl-b/Cbl. […] The lack of a FRET signal indicates Cbl-b/Cbl is inhibited by the Cbl-b/Cbl inhibitor.

Cbl (aa49-434) = target: T2, Cbl (aa49-434) (Homo sapiens, UniProt P22681); assay: Co-expressed Cbl with BirA biochemical assay (CBL/E2-Ub binding, HTRF); conditions: 0.6 nM Cbl co-expressed with BirA, read-out: co-express CBL/E2-Ub-binding assay IC50
T2 construct: Cbl (aa49-434, in-house); made in house
T2 sequence (P22681 49-434): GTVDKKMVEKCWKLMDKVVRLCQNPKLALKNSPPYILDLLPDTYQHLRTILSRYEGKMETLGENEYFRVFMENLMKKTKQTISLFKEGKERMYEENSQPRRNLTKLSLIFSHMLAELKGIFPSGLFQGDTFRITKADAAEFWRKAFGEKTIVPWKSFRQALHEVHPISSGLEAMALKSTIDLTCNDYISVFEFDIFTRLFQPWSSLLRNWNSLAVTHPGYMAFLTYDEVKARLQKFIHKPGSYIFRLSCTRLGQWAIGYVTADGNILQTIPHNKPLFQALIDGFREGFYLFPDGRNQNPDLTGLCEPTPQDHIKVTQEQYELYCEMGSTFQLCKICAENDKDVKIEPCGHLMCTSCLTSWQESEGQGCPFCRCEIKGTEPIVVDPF
Text: as §1

Compound | IC50 (Cbl-b (aa36-427)) | IC50 (Cbl (aa49-434))
Cn1cnnc1[C@]1(c2cccc(NC(=O)c3cc(CNCC4CCC4)cn4ccnc34)c2)C[C@H](C)C1 [Compound A22, 6-(((cyclobutylmethyl)amino)methyl)-N-(3-((1s, 3s)-3-methyl-1-(4-methyl-4H-1,2,4-triazol-3-yl)cyclobutyl)phenyl)imidazo[1,2-a]pyridine-8-carboxamide] | 1.1 nM | 3.6 nM
Cc1cnc2c(C(=O)Nc3cncc([C@]4(c5nncn5C)C[C@@H](C)C4)c3)cc(CN[C@@H](C)C3CCC3)cn12 [Compound A63, 6-({[(1S)-1-cyclobutylethyl]amino}methyl)-3-methyl-N-{5-[(1r, 3s)-3-methyl-1-(4-methyl-1,2,4-triazol-3-yl)cyclobutyl]pyridin-3-yl}imidazo[1,2-a]pyridine-8-carboxamide] | 1.1 nM | 1.8 nM
Cn1cnnc1[C@]1(c2cncc(NC(=O)c3cc(CNC4(C)CC4)cn4c(Cl)cnc34)c2)C[C@H](C)C1 [Compound A73, 3-chloro-N-(5-((1s, 3s)-3-methyl-1-(4-methyl-4H-1,2,4-triazol-3-yl)cyclobutyl)pyridin-3-yl)-6-(((1-methylcyclopropyl)amino)methyl)imidazo[1,2-a]pyridine-8-carboxamide] | 1.2 nM | 2.8 nM
Cn1cnnc1[C@]1(c2cccc(NC(=O)c3cc(CNC4(C)CCC4)cn4c(Cl)cnc34)c2)C[C@H](C)C1 [Compound A66, 3-chloro-N-(3-((1s, 3s)-3-methyl-1-(4-methyl-4H-1,2,4-triazol-3-yl)cyclobutyl)phenyl)-6-(((1-methylcyclobutyl)amino)methyl)imidazo[1,2-a]pyridine-8-carboxamide] | 1.1 nM | 3.4 nM
C[C@H]1CCCN(Cc2cc(C(=O)Nc3cccc([C@]4(c5nncn5C)C[C@@H](CC#N)C4)c3)n3nccc3c2)C1 [Compound A11, 5-{[(3S)-3-methylpiperidin-1-yl]methyl}-N-{3-[(1s, 3s)-3-(cyanomethyl)-1-(4-methyl-1,2,4-triazol-3-yl)cyclobutyl]phenyl}pyrazolo[1,5-a]pyridine-7-carboxamide] | 6.6 nM | 46.2 nM
C[C@H](NCc1cc(C(=O)Nc2cccc([C@]3(c4nncn4C)C[C@@H](CC#N)C3)c2)c2ncc(Cl)n2c1)C1CCCC1 [Compound A34, 3-chloro-N-(3-((1s,3R)-3-(cyanomethyl)-1-(4-methyl-4H-1,2,4-triazol-3-yl)cyclobutyl)phenyl)-6-((((S)-1-cyclopentylethyl)amino)methyl)imidazo[1,2-a]pyridine-8-carboxamide] | 2.6 nM | 7.8 nM
Cn1cnnc1[C@]1(c2cccc(NC(=O)c3cc(CNC4(C)CC4)cn4c(Cl)cnc34)c2)C[C@H](CC#N)C1 [Compound A41, 3-chloro-N-(3-((1s, 3s)-3-(cyanomethyl)-1-(4-methyl-4H-1,2,4-triazol-3-yl)cyclobutyl)phenyl)-6-(((1-methylcyclopropyl)amino)methyl)imidazo[1,2-a]pyridine-8-carboxamide] | 0.2 nM | 0.9 nM
Cc1cnc2c(C(=O)Nc3cncc([C@]4(c5nncn5C)C[C@@H](C)C4)c3)cc(CN3CC[C@H](F)[C@H](C)C3)cn12 [Compound A55, 6-{[(3R,4S)-4-fluoro-3-methylpiperidin-1-yl]methyl}-3-methyl-N-{5-[(1r, 3s)-3-methyl-1-(4-methyl-1,2,4-triazol-3-yl)cyclobutyl]pyridin-3-yl}imidazo[1,2-a]pyridine-8-carboxamide] | 2.9 nM | 6.7 nM
C[C@H]1CCCN(Cc2cc(C(=O)Nc3cccc([C@]4(c5nncn5C)C[C@@H](CC#N)C4)c3)c3nc(F)cn3c2)C1 [Compound A13, N-(3-((1s,3R)-3-(cyanomethyl)-1-(4-methyl-4H-1,2,4-triazol-3-yl)cyclobutyl)phenyl)-2-fluoro-6-(((S)-3-methylpiperidin-1-yl)methyl)imidazo[1,2-a]pyridine-8-carboxamide] | 6.1 nM | 47 nM
Cn1cnnc1[C@]1(c2cccc(NC(=O)c3cc(CNC4(C)CCC4)cn4ccnc34)c2)C[C@H](CC#N)C1 [Compound A36, N-(3-((1s, 3s)-3-(cyanomethyl)-1-(4-methyl-4H-1,2,4-triazol-3-yl)cyclobutyl)phenyl)-6-(((1-methylcyclobutyl)amino)methyl)imidazo[1,2-a]pyridine-8-carboxamide compound with N-(3-((1s, 3s)-3-(cyanomethyl)-1-(4-methyl-4H-1,2,4-triazol-3-yl)cyclobutyl)phenyl)-6-formylimidazo[1,2-a]pyridine-8-carboxamide (1:1)] | 1.7 nM | 16 nM
Cn1cnnc1[C@]1(c2cccc(NC(=O)c3cc(CNCC4(C)CCCC4)cn4ccnc34)c2)C[C@H](CC#N)C1 [Compound A15, N-(3-((1s, 3s)-3-(cyanomethyl)-1-(4-methyl-4H-1,2,4-triazol-3-yl)cyclobutyl)phenyl)-6-((((1-methylcyclopentyl)methyl)amino)methyl)imidazo[1,2-a]pyridine-8-carboxamide] | 0.9 nM | 4 nM

Next, values leading:

IC50 (Cbl-b (aa36-427)) | IC50 (Cbl (aa49-434)) | Compound
0.9 nM | 15.7 nM | C[C@H]1CCCN(Cc2cc(C(=O)Nc3cccc([C@]4(c5nncn5C)C[C@@H](CC#N)C4)c3)nc3c2CCC3(C)C)C1 [Compound C9, N-(3-((1s,3R)-3-(cyanomethyl)-1-(4-methyl-4H-1,2,4-triazol-3-yl)cyclobutyl)phenyl)-7,7-dimethyl-4-(((S)-3-methylpiperidin-1-yl)methyl)-6,7-dihydro-5H-cyclopenta[b]pyridine-2-carboxamide]
1.3 nM | 6.8 nM | Cn1cnnc1[C@]1(c2cccc(NC(=O)c3cc(CNC4CCCCCC4)c4c(n3)C(C)(C)CC4)c2)C[C@H](CC#N)C1 [Compound C54, N-(3-((1s, 3s)-3-(cyanomethyl)-1-(4-methyl-4H-1,2,4-triazol-3-yl)cyclobutyl)phenyl)-4-((cycloheptylamino)methyl)-7,7-dimethyl-6,7-dihydro-5H-cyclopenta[b]pyridine-2-carboxamide]
2 nM | 15.6 nM | Cc1c[nH]c2c(CN3CCC[C@H](C)C3)cc(C(=O)Nc3cccc([C@]4(c5nncn5C)C[C@@H](CC#N)C4)c3)nc12 [Compound B10, N-(3-((1s,3R)-3-(cyanomethyl)-1-(4-methyl-4H-1,2,4-triazol-3-yl)cyclobutyl)phenyl)-3-methyl-7-(((S)-3-methylpiperidin-1-yl)methyl)-1H-pyrrolo[3,2-b]pyridine-5-carboxamide]
1.8 nM | 3.9 nM | C[C@H]1CCCN(Cc2cc(C(=O)Nc3cccc([C@]4(Cc5nncn5C)C[C@@H](C#N)C4)c3)nc3c(F)c[nH]c23)C1 [Compound B20, N-(3-((1r,3S)-3-cyano-1-((4-methyl-4H-1,2,4-triazol-3-yl)methyl)cyclobutyl)phenyl)-3-fluoro-7-(((S)-3-methylpiperidin-1-yl)methyl)-1H-pyrrolo[3,2-b]pyridine-5-carboxamide]
0.8 nM | 2.9 nM | C[C@H](NCc1cc(C(=O)Nc2cccc([C@]3(c4nncn4C)C[C@@H](CC#N)C3)c2)nc2c1CCC2(C)C)C1CC1 [Compound C39, N-(3-((1s,3R)-3-(cyanomethyl)-1-(4-methyl-4H-1,2,4-triazol-3-yl)cyclobutyl)phenyl)-4-((((S)-1-cyclopropylethyl)amino)methyl)-7,7-dimethyl-6,7-dihydro-5H-cyclopenta[b]pyridine-2-carboxamide]
1.4 nM | 1.3 nM | C[C@H]1CCCN(Cc2cc(C(=O)Nc3cccc([C@]4(Cc5nncn5C)C[C@@H](C#N)C4)c3)nc3c2NCC3(C)C)C1 [Compound C12, 3,3-dimethyl-7-{[(3S)-3-methylpiperidin-1-yl]methyl}-N-{3-[(1r, 3r)-3-cyano-1-[(4-methyl-1,2,4-triazol-3-yl)methyl]cyclobutyl]phenyl}-1H,2H-pyrrolo[3,2-b]pyridine-5-carboxamide]
1.6 nM | 13 nM | C[C@H]1CCCN(Cc2cc(C(=O)Nc3cccc([C@]4(c5nncn5C)C[C@@H](CC#N)C4)c3)nc3sccc23)C1 [Compound B18, 4-{[(3S)-3-methylpiperidin-1-yl]methyl}-N-{3-[(1s, 3s)-3-(cyanomethyl)-1-(4-methyl-1,2,4-triazol-3-yl)cyclobutyl]phenyl}thieno[2,3-b]pyridine-6-carboxamide]
3.6 nM | 8.8 nM | Cn1cnnc1C[C@]1(c2cccc(NC(=O)c3cc(CNCC4(C)CCCC4)c4[nH]ccc4n3)c2)C[C@H](C#N)C1 [Compound B23, N-(3-((1r, 3r)-3-cyano-1-((4-methyl-4H-1,2,4-triazol-3-yl)methyl)cyclobutyl)phenyl)-7-((((1-methylcyclopentyl)methyl)amino)methyl)-1H-pyrrolo[3,2-b]pyridine-5-carboxamide]
